# Entries after “also recorded” stand apart in the source; their conditions may differ.
# What was measured:
# Mi-2β mutation (H727A) = molecular target: T1, Mi-2β mutation (H727A) (Homo sapiens, UniProt Q14839, H727A); experiment: FRET-based nucleosome repositioning assay with mutant Mi-2β; format: biochemical; details: ATP 1 mM, Z36-MP5 10 µM
# T1 construct: made in house
# Method: based nucleosome repositioning assays were performed with different concentrations of Mi-2β and a non-
# limiting ATP concentration (1 mM) for the indicated incubation time (n=3). c The ATP titration
# (concentrations ranging from 0.1 to 300 µM) was performed with the FRET-based nucleosome
# time. […] Values represent mean
# based nucleosome repositioning assays.
# Pharmacokinetics in rats = format: in vivo; details: Sprague-Dawley, rat, serum, ip, intraperitoneal 1.0 mg/kg, male SD rats
# Method: Compound Z36-MP5 was evaluated in a pharmacokinetic study in male Sprague-Dawley (SD) rats following intraperitoneal injection of Z36-MP5 at 1.0 mg/kg as a solution in 5% DMSO, 30% PEG400, and 65% corn oil. Blood was collected at 0.25, 0.5, 1, 2, 4, 8, and 24 h following intraperitoneal injection. The blood samples were placed in wet ice, and serum was collected after centrifugation. Serum samples were frozen and stored at −80 °C. The serum samples were analyzed utilizing HPLC-coupled tandem mass spectrometry. Values are calculated from arithmetic mean plasma concentrations (n = 3 rats per condition). Rats experiments were done according to protocols approved by the ethics committee review board of University of Arkansas for Medical Science and in accordance with the guidelines set forth by the US National Institutes of Health.
# [1] = system: tumor-infiltrating lymphocytes in BRafV600E/Ptennull melanoma; experiment: Flow cytometry of tumor-infiltrating lymphocytes, genetically engineered model; format: in vivo, mouse
# Method: Mi-2β^lox/lox mice were generated and generously provide by Dr. Georgopoulos lab (Massachusetts General Hospital at Harvard Medical School)[31]. Tyr::CreER;BRaf^CA;Pten^lox/lox mice were purchased from Jackson laboratories (Stock No: 013590). All strains of mice were on the background of C57BL/6J background. Gene activation and silencing were induced with intraperitoneal (i.p.) administration of 100 µL/mouse/day tamoxifen (20 mg/mL) for constant 5 days. […] Tumor growth was then monitored each the other day. […] When the following conditions occur, the mouse is regarded as dead and euthanized, including weight loss greater than 15%; significant abdominal distension, especially if it begins to compromise respiratory ability of animal; hunched posture; failure to eat or drink; absence of (or abnormal) feces or urine output; reluctance to move or abnormal gait; Discharges or hemorrhage. Abnormal behavior or vocalizations and tumor size exceeded 1 cm^3. All animal experiments were done according to protocols approved by the ethics committee review board of Boston University and in accordance with the guidelines set forth by the US National Institutes of Health and The ethics committee review board of The 2nd Hospital and School of Medicine, Zhejiang University. […]
# 468 kinases = experiment: KINOMEscan screening (DiscoveRx); format: binding; details: 1000 nM
# [2] = system: tumor-infiltrating lymphocytes in B16F10 graft; experiment: Flow cytometry of tumor-infiltrating lymphocytes, B16F10 graft; format: in vivo, C57BL/6 mice
# Method: Tumors were minced with scissors, and then digested with the digestion buffer (RPMI 1640 medium, 5% FBS, 1% penicillin-streptomycin, 25 mM HEPES, and 300 U collagenase (Sigma C0130)) on a shaker at 37 °C for 2 hours. Single cells were prepared through a 70 μm cell strainer. Erythrocytes were removed by incubation in red blood cell lysis buffer (R7757, Sigma) at room temperature for 5 min. The cells were prepared in PBS (with concentration of ~2 × 10^7) for studies.
# The single-cell suspension were fixed with 2% paraformaldehyde solution (J19943K2, Thermo Scientific). CD45 + T cells were selected from single-cell suspension (about 2 × 10^7 cells digest from […] tumor tissue) by flow cytometry with the follow antibodies (anti-mouse CD45; BD pharmingen, 561875). And then the cells were stained anti-mouse CD3e PE (145-2C11, BD pharmingen, 553063), anti-mouse CD4 FITC (RM4-5, BD pharmingen, 553046), anti-mouse CD4 PE/Cy7 (GK1.5, BioLegend, 100421), anti-mouse CD8 FITC (53-6.7, BD pharmingen, 553031), anti-mouse CD8a APC/Cy7 (53-6.7, BioLegend 100713), anti-mouse IFN-γ PE (XMG1.2, eBioscience, 12731181), anti-mouse CD69 PE (H1.2F3, Biolegend, 104508), anti-mouse CD25 Alexa Fluor 488 (PC61.5, eBioscience, 53025182), anti-mouse CD107a-V450 (1D4B, BD, 560648), anti-human/mouse granzyme B FITC (GB11, BioLegend, 515403). […]
# T1 sequence (Q14839 whole entry H727A): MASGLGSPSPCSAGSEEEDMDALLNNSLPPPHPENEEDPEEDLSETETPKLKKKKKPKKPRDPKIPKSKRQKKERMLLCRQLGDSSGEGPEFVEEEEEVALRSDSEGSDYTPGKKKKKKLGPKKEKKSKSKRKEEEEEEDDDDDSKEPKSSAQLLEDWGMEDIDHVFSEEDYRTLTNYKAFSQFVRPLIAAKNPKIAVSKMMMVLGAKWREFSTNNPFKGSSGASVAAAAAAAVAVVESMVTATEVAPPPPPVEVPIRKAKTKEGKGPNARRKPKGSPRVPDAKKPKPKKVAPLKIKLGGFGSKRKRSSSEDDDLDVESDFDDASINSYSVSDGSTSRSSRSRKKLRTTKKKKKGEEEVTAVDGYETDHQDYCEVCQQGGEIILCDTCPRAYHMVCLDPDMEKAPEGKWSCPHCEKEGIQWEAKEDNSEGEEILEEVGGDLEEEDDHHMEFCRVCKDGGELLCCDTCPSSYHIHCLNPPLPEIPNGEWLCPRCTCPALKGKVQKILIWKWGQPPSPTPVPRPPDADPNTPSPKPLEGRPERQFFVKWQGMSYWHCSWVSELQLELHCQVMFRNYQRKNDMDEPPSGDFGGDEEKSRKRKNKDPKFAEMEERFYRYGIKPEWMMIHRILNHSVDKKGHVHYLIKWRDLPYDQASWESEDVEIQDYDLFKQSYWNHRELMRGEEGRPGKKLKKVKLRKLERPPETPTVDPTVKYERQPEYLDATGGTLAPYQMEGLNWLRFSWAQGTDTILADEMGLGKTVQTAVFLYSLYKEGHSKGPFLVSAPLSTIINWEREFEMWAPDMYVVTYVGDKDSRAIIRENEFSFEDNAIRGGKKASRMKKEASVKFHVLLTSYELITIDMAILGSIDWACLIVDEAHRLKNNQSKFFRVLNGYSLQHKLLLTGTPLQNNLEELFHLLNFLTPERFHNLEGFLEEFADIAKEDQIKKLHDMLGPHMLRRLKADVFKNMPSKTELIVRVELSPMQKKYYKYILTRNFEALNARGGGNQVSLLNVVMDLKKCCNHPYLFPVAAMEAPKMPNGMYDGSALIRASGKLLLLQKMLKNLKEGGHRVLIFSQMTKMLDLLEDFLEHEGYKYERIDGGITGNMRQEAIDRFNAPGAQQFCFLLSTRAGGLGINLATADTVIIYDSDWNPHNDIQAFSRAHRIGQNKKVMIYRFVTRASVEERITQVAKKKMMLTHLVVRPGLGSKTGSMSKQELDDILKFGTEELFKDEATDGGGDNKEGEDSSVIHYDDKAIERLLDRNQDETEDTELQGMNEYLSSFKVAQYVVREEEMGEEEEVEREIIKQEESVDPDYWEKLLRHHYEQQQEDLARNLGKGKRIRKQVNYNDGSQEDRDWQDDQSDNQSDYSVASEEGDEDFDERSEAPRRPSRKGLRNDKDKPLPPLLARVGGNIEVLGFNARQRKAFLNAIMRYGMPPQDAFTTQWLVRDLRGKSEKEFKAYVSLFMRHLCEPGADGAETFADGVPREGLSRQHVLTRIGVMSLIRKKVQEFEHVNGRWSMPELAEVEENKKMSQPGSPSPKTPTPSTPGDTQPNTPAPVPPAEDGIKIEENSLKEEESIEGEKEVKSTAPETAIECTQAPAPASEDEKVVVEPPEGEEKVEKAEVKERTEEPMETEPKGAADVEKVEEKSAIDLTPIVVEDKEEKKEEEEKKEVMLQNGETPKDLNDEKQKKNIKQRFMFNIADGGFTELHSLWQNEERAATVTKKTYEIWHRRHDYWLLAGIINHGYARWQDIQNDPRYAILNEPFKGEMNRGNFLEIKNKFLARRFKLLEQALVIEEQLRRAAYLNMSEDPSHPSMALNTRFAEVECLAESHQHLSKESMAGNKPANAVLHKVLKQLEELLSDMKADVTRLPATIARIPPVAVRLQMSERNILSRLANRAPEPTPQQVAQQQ
structure (smiles),measurement,setting,value
Cn1c(=O)[nH]c2ccc(-c3cccc(C(=O)NC4CCn5ccnc5C4)c3)cc21 (centres unmarked) [Z36-MP5],sensitivity of Mi-2β H727A mutant to inhibitor,Mi-2β mutation (H727A),no longer sensitive; also recorded: histidine 727 of Mi-2β dependent
same,Cmax,Pharmacokinetics in rats,3960 ng/mL
same,half-life,Pharmacokinetics in rats; read-out: half-life T1/2 (converted),27 min
same,CD4+ T-cell and Treg populations,[1],not affected
same,CD8+ T-cell population,[1],moderately induced
same,activity against 468 kinases,468 kinases,extremely high kinase selectivity; also recorded: not significantly active on any targets tested
same,CD8+ T-cell TILs in graft melanomas,[2],moderate increase
same,"GZMB expression and activation markers CD69, IFN-γ, CD25, CD107 in tumor-infiltrating CD8+ T cells",[2],upregulation
